Data set [1] in a line: AUC (0 to t) in mouse at 30 mg/kg, po administered as single dose by HPLC-MS analysis. The class given is ADME, organism-based. The following applies: in vivo.
Data set [2] has as its target T1, Ephrin type-A receptor 6 (Homo sapiens) (UniProt Q9UF33).
T1 sequence (whole entry): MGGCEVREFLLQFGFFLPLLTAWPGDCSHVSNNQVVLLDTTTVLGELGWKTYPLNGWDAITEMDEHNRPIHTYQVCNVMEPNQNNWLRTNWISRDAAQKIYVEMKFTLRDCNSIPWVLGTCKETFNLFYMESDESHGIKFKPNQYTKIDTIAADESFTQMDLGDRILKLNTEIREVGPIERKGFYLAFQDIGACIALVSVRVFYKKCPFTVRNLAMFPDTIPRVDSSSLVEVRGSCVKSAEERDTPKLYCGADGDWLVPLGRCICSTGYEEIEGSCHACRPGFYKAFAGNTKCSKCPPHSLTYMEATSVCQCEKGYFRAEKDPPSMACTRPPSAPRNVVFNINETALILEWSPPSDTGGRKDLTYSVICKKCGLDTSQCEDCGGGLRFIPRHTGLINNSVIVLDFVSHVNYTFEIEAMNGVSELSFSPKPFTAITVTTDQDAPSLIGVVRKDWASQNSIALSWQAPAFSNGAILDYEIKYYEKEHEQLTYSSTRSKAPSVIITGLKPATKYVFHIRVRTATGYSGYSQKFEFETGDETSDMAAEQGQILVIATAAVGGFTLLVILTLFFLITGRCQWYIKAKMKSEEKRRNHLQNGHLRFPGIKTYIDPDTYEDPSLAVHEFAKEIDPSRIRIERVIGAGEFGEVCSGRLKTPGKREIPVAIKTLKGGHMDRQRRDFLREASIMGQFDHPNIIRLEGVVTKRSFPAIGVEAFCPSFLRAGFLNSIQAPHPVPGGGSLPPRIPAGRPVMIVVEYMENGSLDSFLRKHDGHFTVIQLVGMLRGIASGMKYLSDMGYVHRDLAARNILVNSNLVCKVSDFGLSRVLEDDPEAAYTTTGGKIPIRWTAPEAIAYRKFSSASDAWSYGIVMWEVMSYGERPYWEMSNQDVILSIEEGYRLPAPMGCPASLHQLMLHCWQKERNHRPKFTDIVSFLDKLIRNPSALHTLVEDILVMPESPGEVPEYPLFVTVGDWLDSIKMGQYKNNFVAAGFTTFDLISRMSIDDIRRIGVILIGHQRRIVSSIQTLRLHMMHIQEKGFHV
As to the kind of experiment: (§1) Displacement of biotinylated ephrin-A1-Fc from EphA6 (unknown origin) preincubated for 1 hr followed by biotinylated-ephrin-A1-Fc addition measured after 4 hrs by ELISA.

The next data set deals with T2, Ephrin type-A receptor 6 (Homo sapiens, UniProt Q9UF33).
T2 sequence (Q9UF33 whole entry): T1 sequence (whole entry)
The data set is described as §1.

The nature of data set [3]: Kinetic solubility of the compound in NaCl solution at 25 deg C after 2 hrs by HPLC-ESI-MS/MS analysis. The class given is physicochemical. The following applies: read-out: Kinetic_solubility.
In a further data set the target is T3, Ephrin type-B receptor 1 (Homo sapiens, UniProt P54762).
T3 sequence (P54762 whole entry): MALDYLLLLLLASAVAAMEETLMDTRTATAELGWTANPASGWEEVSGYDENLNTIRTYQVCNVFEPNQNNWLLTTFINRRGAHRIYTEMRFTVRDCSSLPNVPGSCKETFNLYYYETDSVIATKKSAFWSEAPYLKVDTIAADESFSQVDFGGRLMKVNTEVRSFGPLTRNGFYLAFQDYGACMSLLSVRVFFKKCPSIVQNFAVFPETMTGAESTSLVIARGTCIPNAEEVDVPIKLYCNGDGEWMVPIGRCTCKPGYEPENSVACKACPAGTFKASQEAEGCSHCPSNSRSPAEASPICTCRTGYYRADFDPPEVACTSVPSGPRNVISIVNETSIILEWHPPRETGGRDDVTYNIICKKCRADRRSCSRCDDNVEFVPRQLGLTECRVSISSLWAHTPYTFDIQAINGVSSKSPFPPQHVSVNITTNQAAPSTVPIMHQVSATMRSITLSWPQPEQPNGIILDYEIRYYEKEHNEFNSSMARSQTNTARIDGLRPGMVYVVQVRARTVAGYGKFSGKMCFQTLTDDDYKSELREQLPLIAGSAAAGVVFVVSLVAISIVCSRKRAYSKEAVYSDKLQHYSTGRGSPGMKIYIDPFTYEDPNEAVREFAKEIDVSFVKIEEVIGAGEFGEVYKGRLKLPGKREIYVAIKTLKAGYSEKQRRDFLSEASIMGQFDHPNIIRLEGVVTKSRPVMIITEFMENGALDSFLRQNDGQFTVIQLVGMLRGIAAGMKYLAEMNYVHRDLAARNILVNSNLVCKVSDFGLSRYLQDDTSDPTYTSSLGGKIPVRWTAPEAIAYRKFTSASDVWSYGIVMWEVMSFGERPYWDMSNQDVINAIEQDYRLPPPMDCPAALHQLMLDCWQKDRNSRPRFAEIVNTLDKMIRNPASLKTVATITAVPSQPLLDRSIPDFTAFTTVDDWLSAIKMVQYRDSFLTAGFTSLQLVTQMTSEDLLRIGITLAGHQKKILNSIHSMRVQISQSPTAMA
As to the kind of experiment: (§2) Displacement of biotinylated ephrin-B1-Fc from EphB1 (unknown origin) preincubated for 1 hr followed by biotinylated-ephrin-B1-Fc addition measured after 4 hrs by ELISA.

The target of data set [4] is T4, Ephrin type-B receptor 1 (Homo sapiens) (UniProt P54762).
T4 sequence (whole entry): T3 sequence (P54762 whole entry)
The data set is described as §2.

A further data set deals with Ephrin type-A receptor 4 (Homo sapiens, UniProt P54764). Put plainly: Displacement of biotinylated ephrin-A1-Fc from EphA4 (unknown origin) preincubated for 1 hr followed by biotinylated-ephrin-A1-Fc addition measured after 4 hrs by ELISA.
Ephrin type-A receptor 4, sequence (P54764 whole entry): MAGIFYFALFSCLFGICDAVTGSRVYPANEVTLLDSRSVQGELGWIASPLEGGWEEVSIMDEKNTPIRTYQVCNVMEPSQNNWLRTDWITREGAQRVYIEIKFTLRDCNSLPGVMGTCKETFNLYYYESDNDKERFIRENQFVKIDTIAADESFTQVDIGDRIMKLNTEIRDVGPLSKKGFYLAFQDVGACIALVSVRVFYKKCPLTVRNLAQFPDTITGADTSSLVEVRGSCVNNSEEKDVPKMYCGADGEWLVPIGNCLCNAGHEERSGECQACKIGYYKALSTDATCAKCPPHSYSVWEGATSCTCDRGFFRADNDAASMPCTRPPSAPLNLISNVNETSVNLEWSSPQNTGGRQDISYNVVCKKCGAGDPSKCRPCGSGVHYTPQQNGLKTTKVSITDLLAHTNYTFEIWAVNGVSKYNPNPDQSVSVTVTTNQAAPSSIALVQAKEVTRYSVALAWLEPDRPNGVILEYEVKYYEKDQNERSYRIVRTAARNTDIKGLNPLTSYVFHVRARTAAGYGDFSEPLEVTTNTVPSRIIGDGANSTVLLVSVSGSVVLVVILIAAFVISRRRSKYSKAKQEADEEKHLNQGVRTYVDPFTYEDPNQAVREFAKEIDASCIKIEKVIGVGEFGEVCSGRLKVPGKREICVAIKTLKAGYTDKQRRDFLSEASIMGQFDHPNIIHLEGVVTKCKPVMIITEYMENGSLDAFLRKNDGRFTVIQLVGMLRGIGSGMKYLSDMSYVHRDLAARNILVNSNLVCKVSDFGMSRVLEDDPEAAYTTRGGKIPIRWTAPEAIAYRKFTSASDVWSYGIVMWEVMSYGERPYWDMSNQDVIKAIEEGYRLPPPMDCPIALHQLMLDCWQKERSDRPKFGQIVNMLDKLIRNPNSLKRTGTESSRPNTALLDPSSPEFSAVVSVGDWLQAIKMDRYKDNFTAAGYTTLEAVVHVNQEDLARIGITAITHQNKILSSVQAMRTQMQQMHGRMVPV
Data set [5] can be described thus: Cmax in mouse at 30 mg/kg, po administered as single dose by HPLC-MS analysis. The format is ADME, organism-based. Also noted: dose 30 mg/kg, route oral. The following applies: in vivo.
A short description of data set [6]: Metabolic stability in mouse liver S9 fractions assessed as compound remaining at 1 uM after 1 hr by HPLC-ESI-MS/MS analysis in presence of NADPH regenerating system. The format is ADME, subcellular, Liver S9 fraction. Particulars: read-out: Stability.
Another data set deals with Ephrin type-A receptor 7 (Homo sapiens, UniProt Q15375). Put plainly: Displacement of biotinylated ephrin-A1-Fc from EphA7 (unknown origin) preincubated for 1 hr followed by biotinylated-ephrin-A1-Fc addition measured after 4 hrs by ELISA.

The values that follow come from ChEMBL document CHEMBL3734669, “Δ(5)-Cholenoyl-amino acids as selective and orally available antagonists of the Eph-ephrin system” (Eur J Med Chem, 2015).

Converted amounts (≈) assume the structure as drawn.

`C[C@H](CCC(=O)N[C@@H](Cc1c[nH]c2ccccc12)C(=O)O)[C@H]1CC[C@H]2[C@@H]3CC=C4C[C@@H](O)CC[C@]4(C)[C@H]3CC[C@]12C`: in data set [1], the AUC(0-t) was found to be 573 ng·h/mL. Also, the inhibition result (in data set [2]; in data set [4]; on Ephrin type-A receptor 4; on Ephrin type-A receptor 7) was “Dose-dependent effect” each time. Moreover, the 50% inhibitory concentration (IC50) was found to be 3500 nM at Ephrin type-A receptor 6, 2500 nM on Ephrin type-B receptor 1, 3800 nM at Ephrin type-A receptor 4 and 2500 nM at Ephrin type-A receptor 7. In [3], the solubility kinetic at 2 h amounted to 31.5 µM (≈ 17.7 µg/mL). This compound had a Cmax in [5] of 1400 nM. Moreover, the remaining at 1 h, 1 µM in data set [6] turned out to be 70%.
